Results on 30 molecules are retold here after patent US11420935B2, “Bicyclic compounds” (Vivace Therapeutics, Inc., priority 2019, dated 2022).

Read-outs that look alike come from different tables or passages of the source. A value given as a limit tells only on which side of the number the result lay.

For this test, the system named is 8×TBD luciferase reporter (YAP) in HEK293T cells. In words: YAP Reporter Assay (8×TBD firefly luciferase reporter). The settings on record: Homo sapiens, HEK-293T. The class given is cell-based. The procedure, abridged: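 Stably transfected HEK293T cells (8×TBD firefly luciferase plus TK-renilla) were dosed with 10-point 1:3 dilutions from 3 μM final, quadruplicates, for 24 h at 37 °C. Dual-Glo read firefly and renilla luminescence; IC50 and maximal inhibition reported separately for each.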
(A reporter such as luciferase makes a cellular process visible.)

The mark [1] stands for this setting: HEK293T cells stably transfected with 8×TBD luciferase reporter and pRLTK, 24-hr incubation, firefly luciferase activity, read-out: Firefly Luciferase IC50.
Where [2] appears, read: 24 h, read-out: Firefly Luciferase IC50 (μM).

Turning to `O=C(NC1(c2ccccc2)COC1)c1ccc2c(Oc3ccc(C(F)(F)F)cc3)cccc2c1` [Compound 37, N-(3-phenyloxetan-3-yl)-5-(4-(trifluoromethyl)phenoxy)-2-naphthamide], under setting [1], the IC50 (usually the concentration needed to halve the response being measured) was less than 0.1 µM. The same measure, in the same setting: with `CNS(=O)(=O)c1ccc2c(Oc3ccc(Cl)c(Cl)c3)cccc2c1` [Compound 9, 5-(3,4-dichlorophenoxy)-N-methylnaphthalene-2-sulfonamide] the figure was less than 0.1 µM. `O=C(NC(CCO)c1ccccn1)c1ccc2c(Oc3ccc(C(F)(F)F)cc3)cccc2c1` (stereo not drawn) [Compound 94, N-(3-hydroxy-1-(pyridin-2-yl)propyl)-5-(4-(trifluoromethyl)phenoxy)-2-naphthamide]: the IC50 under setting [1] was less than 0.1 µM. Turning to `C[C@@H](NC(=O)c1ccc2c(Oc3ccc(C(F)(F)F)cc3)cccc2c1)C(N)=O` [Compound 51, (R)—N-(1-amino-1-oxopropan-2-yl)-5-(4-(trifluoromethyl)phenoxy)-2-naphthamide], the IC50 under setting [1] is less than 0.1 µM. Same read-out and setting: for `C[C@H](NC(=O)c1ccc2c(Oc3ccc(C(F)(F)F)cc3)cccc2c1)c1cccc(N(C)C)n1` [Compound 76, (S)—N-(1-(6-(dimethylamino)pyridin-2-yl)ethyl)-5-(4-(trifluoromethyl)phenoxy)-2-naphthamide] the value was 0.1 to 1 µM; for `O=C(NC1(c2ccccn2)CC1)c1ccc2c(Oc3ccc(C(F)(F)F)cc3)cccc2c1` [Compound 54, N-(1-(pyridin-2-yl)cyclopropyl)-5-(4-(trifluoromethyl)phenoxy)-2-naphthamide], less than 0.1 µM; for `CC(C)NC(=O)c1ccc2c(Oc3ccc(C(F)(F)F)cc3)cccc2n1` [Compound 70, N-Isopropyl-5-(4-(trifluoromethyl)phenoxy)quinoline-2-carboxamide], less than 0.1 µM.

In the case of `C[C@H](NC(=O)c1ccc2c(Oc3ccc(C(F)(F)F)cc3)cccc2c1)c1cccc(N)n1` [Compound 65, (S)—N-(1-(6-aminopyridin-2-yl)ethyl)-5-(4-(trifluoromethyl)phenoxy)-2-naphthamide], the IC50 under setting [1] lay in the range of 0.1 to 1 µM. On the same count and under the same terms, with `CC(C)NC(=O)c1ccc2c(Oc3ccc(F)c(F)c3)cccc2c1` [Compound 8, 5-(3,4-difluorophenoxy)-N-isopropyl-2-naphthamide] the figure was less than 0.1 µM. As to `N#CCCNC(=O)c1ccc2c(Oc3ccc(C(F)(F)F)cc3)cccc2c1` [Compound 23, N-(2-cyanoethyl)-5-(4-(trifluoromethyl)phenoxy)-2-naphthamide], the IC50 under setting [2] was less than 0.1 µM. For `C[C@@H](NC(=O)c1ccc2c(Oc3ccc(C(F)(F)F)cc3)cccc2c1)C1CCC1` [Compound 59, (R)—N-(1-cyclobutylethyl)-5-(4-(trifluoromethyl)phenoxy)-2-naphthamide], the IC50 under setting [1] is less than 0.1 µM. Same read-out and setting: with `N#CNC(=O)c1ccc2c(Oc3ccc(C(F)(F)F)cc3)cccc2c1` [Compound 86, N-cyano-5-[4-(trifluoromethyl)phenoxy]naphthalene-2-carboxamide] the figure was 0.1 to 1 µM; with `O=C(N[C@H](CCO)c1ccccn1)c1ccc2c(Oc3ccc(C(F)(F)F)cc3)cccc2c1` [Compound 109, (R)—N-(3-hydroxy-1-(pyridin-2-yl)propyl)-5-(4-(trifluoromethyl)phenoxy)-2-naphthamide], 0.1 to 1 µM.

With `CC(C)NC(=O)c1ccc2c(Oc3cccc(Cl)c3)cccc2c1` [Compound 2, 5-(3-chlorophenoxy)-N-isopropyl-2-naphthamide], the IC50 under setting [2] is less than 0.1 µM. For the molecule `CC#C[C@H](C)NC(=O)c1ccc2c(Oc3ccc(C(F)(F)F)cc3)cccc2c1` [Compound 89, N-[(1S)-1-methylbut-2-ynyl]-5-[4-(trifluoromethyl)phenoxy]naphthalene-2-carboxamide], under setting [1], the 50% inhibitory concentration (IC50) is less than 0.1 µM. Still for that read-out and setting: for `C[C@@H](NC(=O)c1ccc2c(Oc3ccc(C(F)(F)F)cc3)cccc2c1)c1c[nH]cn1` [Compound 48, (R)—N-(1-(1H-imidazol-4-yl)ethyl)-5-(4-(trifluoromethyl)phenoxy)-2-naphthamide] the value was less than 0.1 µM; for `C[C@@H](NC(=O)c1ccc2c(Oc3ccc(C(F)(F)F)cc3)cccc2c1)c1cc(N(C)C)ccn1` [Compound 74, (R)—N-(1-(4-(dimethylamino)pyridin-2-yl)ethyl)-5-(4-(trifluoromethyl)phenoxy)-2-naphthamide], 1 to 3 µM; for `CCN1CC([C@H](C)NC(=O)c2ccc3c(Oc4ccc(C(F)(F)F)cc4)cccc3c2)C1` [Compound 130, (S)—N-(1-(1-ethylazetidin-3-yl)ethyl)-5-(4-(trifluoromethyl)phenoxy)-2-naphthamide], 0.1 to 1 µM.

`CC(C)N1CC([C@@H](C)NC(=O)c2ccc3c(Oc4ccc(C(F)(F)F)cc4)cccc3c2)C1` [Compound 133, (R)—N-(1-(1-isopropylazetidin-3-yl)ethyl)-5-(4-(trifluoromethyl)phenoxy)-2-naphthamide]: under setting [1], the IC50 fell in the range of 1 to 3 µM. Consider `C[C@@H](NC(=O)c1ccc2c(Oc3ccc(C(F)(F)F)cc3)cccc2c1)C1CN(CCO)C1` [Compound 135, (R)—N-(1-(1-(2-hydroxyethyl)azetidin-3-yl)ethyl)-5-(4-(trifluoromethyl)phenoxy)-2-naphthamide], for which, under setting [2], the IC50 was 0.1 to 1 µM. `C[C@H](NC(=O)c1ccc2c(Oc3ccc(C(F)(F)F)cc3)cccc2c1)c1cc(N(C)C)ccn1` [Compound 73, (S)—N-(1-(4-(dimethylamino)pyridin-2-yl)ethyl)-5-(4-(trifluoromethyl)phenoxy)-2-naphthamide]: under setting [1], the IC50 lay in the range of 0.1 to 1 µM. Same read-out and setting: for `C[C@@H](NC(=O)c1ccc2c(Oc3ccc(C(F)(F)F)cc3)cccc2c1)C1COC1` [Compound 40, (R)—N-(1-(oxetan-3-yl)ethyl)-5-(4-(trifluoromethyl)phenoxy)-2-naphthamide] the value was less than 0.1 µM; for `C[C@H](NC(=O)c1ccc2c(Oc3ccc(C(F)(F)F)cc3)cccc2c1)C(N)=O` [Compound 50, (S)—N-(1-amino-1-oxopropan-2-yl)-5-(4-(trifluoromethyl)phenoxy)-2-naphthamide], less than 0.1 µM. Still for that read-out and setting: for `COC[C@H](C)NC(=O)c1ccc2c(Oc3ccc(C(F)(F)F)cc3)cccc2c1` [Compound 28, (S)—N-(1-methoxypropan-2-yl)-5-(4-(trifluoromethyl)phenoxy)-2-naphthamide] the value was less than 0.1 µM; for `C[C@H](CO)NC(=O)c1cnc2c(Oc3ccc(C(F)(F)F)cc3)cccc2c1` [Compound 15, N-[(1R)-2-hydroxy-1-methyl-ethyl]-8-[4-(trifluoromethyl)phenoxy]quinoline-3-carboxamide], less than 0.1 µM; for `C[C@H](CCNCCO)NC(=O)c1ccc2c(Oc3ccc(C(F)(F)F)cc3)cccc2c1` [Compound 147, (R)-N-(4-((2-hydroxyethyl)amino)butan-2-yl)-5-(4-(trifluoromethyl)phenoxy)-2-naphthamide], less than 0.1 µM. On the same count and under the same terms, for `CNCCNC(=O)c1ccc2c(Oc3ccc(C(F)(F)F)cc3)cccc2c1` [Compound 30, N-(2-(methylamino)ethyl)-5-(4-(trifluoromethyl)phenoxy)-2-naphthamide] the value was 0.1 to 1 µM. Take `C[C@@H](NC(=O)c1ccc2c(Oc3ccc(C(F)(F)F)cc3)cccc2c1)c1cnccn1` [Compound 46, (R)—N-(1-(pyrazin-2-yl)ethyl)-5-(4-(trifluoromethyl)phenoxy)-2-naphthamide]: the IC50 under setting [1] is less than 0.1 µM. Still for that read-out and setting: with `O=C(NC1(c2ccccc2)CC1)c1ccc2c(Oc3ccc(C(F)(F)F)cc3)cccc2c1` [Compound 36, N-(1-phenylcyclopropyl)-5-[4-(trifluoromethyl)phenoxy]naphthalene-2-carboxamide] the figure was less than 0.1 µM; with `C[C@@H](NC(=O)c1ccc2c(Oc3ccc(C(F)(F)F)cc3)cccc2c1)C1CN(CCF)C1` [Compound 124, (R)—N-(1-(1-(2-fluoroethyl)azetidin-3-yl)ethyl)-5-(4-(trifluoromethyl)phenoxy)-2-naphthamide], less than 0.1 µM.
